{"source": "ChEMBL document CHEMBL1201862", "about": "“PubChem BioAssay data set” (2004)", "key": {"[1]": {"tested_on": "Escherichia coli", "assay": "microbe, parasite or virus in culture"}, "[2]": {"assay": "cytotoxicity toward DRD oncogenic fibroblasts, dose response, cell-based, non-viral oncogenic, luminescence (AID 1934)", "format": "functional", "conditions": "Homo sapiens"}, "[3]": {"target": "T1, Small ubiquitin-related modifier 1 (Homo sapiens, UniProt P63165)", "T1 sequence (P63165 whole entry)": "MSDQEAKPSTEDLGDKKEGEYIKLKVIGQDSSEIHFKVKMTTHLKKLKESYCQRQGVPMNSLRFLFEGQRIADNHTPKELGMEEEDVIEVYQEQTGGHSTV", "assay": "inhibitors of SUMO1 partner interactions, dose response, biochemical, FRET (AID 624383)", "format": "functional", "conditions": "read-out: IC50_Mean"}, "[4]": {"tested_on": "BJ", "assay": "cells", "format": "functional, cell-based", "conditions": "Homo sapiens"}, "[5]": {"target": "T1, Small ubiquitin-related modifier 1", "assay": "inhibitors of SUMO1 peptide binding, dose response, biochemical, fluorescence polarization, uHTS hits (AID 624382)", "format": "functional", "conditions": "read-out: IC50_Mean"}, "[6]": {"target": "T2, Streptokinase A (Streptococcus pyogenes serotype M1, UniProt P10520)", "T2 sequence (P10520 whole entry)": "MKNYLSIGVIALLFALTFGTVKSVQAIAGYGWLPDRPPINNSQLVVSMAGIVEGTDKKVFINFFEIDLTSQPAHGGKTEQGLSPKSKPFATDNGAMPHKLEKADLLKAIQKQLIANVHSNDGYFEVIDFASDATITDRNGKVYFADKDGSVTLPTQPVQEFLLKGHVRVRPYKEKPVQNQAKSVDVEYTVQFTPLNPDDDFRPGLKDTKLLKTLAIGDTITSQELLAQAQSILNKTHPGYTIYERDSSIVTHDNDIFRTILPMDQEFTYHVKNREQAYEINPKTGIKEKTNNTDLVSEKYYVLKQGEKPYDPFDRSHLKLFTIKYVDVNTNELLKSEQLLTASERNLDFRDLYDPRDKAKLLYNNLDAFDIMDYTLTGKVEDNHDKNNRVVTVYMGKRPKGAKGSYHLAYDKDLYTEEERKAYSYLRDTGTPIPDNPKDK", "assay": "S. pyogenes streptokinase expression inhibitors, potency, dose response, plasminogen activation absorbance, OD405 (AID 1914)", "format": "functional, Streptococcus pyogenes M1 GAS"}, "[7]": {"tested_on": "BJ", "assay": "cytotoxicity toward BJ-TERT-LT-ST fibroblasts, dose response, cell-based, RAS-independent, luminescence (AID 1935);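 note: BJ fibroblasts immortalized with TERT plus LT and ST oncogenes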", "format": "functional", "conditions": "Homo sapiens"}, "[8]": {"tested_on": "Streptococcus sp. 'group A'", "assay": "growth inhibition of control SK(-) GAS strain, dose response, counter-screen for streptokinase expression inhibitor project, luminescence, kanamycin, BacTiterGlo, confirmation (AID 1900)", "format": "functional, organism-based", "conditions": "Streptococcus sp. 'group A'"}, "[9]": {"tested_on": "Streptococcus", "assay": "Group A Streptococcus viability loss, dose response, counter-screen for streptokinase expression inhibitor project, luminescence, BacTiterGlo (AID 1915)", "format": "functional, organism-based", "conditions": "Streptococcus"}, "[10]": {"target": "T3, DNA repair protein RAD52 homolog (Homo sapiens, UniProt P43351)", "T3 sequence (P43351 whole entry)": "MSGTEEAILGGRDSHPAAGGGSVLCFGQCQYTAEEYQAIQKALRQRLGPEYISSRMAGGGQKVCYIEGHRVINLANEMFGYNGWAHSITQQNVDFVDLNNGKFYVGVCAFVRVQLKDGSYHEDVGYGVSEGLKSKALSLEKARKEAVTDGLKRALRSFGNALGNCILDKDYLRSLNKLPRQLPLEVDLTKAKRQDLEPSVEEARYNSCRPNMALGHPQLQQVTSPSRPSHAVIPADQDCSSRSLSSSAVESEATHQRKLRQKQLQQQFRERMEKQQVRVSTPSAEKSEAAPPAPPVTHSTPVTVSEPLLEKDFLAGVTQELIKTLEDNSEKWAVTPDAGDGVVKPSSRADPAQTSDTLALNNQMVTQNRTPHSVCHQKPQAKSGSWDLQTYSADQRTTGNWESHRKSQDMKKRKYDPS", "format": "functional, biochemical"}, "[11]": {"target": "T4, Rac GTPase-activating protein 1 (Homo sapiens, UniProt Q9H0H5)", "T4 sequence (Q9H0H5 whole entry)": "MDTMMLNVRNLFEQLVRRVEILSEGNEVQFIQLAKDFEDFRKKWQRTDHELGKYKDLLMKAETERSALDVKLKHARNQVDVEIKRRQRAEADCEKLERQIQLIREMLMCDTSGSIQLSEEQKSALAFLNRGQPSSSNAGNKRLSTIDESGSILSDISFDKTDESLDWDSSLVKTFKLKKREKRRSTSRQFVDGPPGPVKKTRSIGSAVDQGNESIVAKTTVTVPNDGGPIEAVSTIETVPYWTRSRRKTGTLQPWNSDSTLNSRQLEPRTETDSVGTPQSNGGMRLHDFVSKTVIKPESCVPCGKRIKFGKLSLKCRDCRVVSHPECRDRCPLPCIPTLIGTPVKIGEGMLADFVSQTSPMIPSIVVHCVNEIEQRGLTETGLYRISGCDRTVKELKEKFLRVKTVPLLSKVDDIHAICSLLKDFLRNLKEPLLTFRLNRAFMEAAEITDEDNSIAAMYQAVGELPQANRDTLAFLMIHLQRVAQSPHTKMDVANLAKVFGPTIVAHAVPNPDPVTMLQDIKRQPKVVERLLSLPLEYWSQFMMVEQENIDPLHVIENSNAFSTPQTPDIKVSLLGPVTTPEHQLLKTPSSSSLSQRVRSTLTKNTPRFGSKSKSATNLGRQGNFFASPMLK", "assay": "MgcRacGAP GTPase-activating activity inhibitors, confirmation, biochemical, ADP Hunter fluorescence, primary and confirmatory (AID 624330)", "format": "functional"}, "[12]": {"tested_on": "BJ", "assay": "cytotoxicity toward BJ-TERT fibroblasts, dose response, cell-based, RAS-independent, luminescence (AID 1933)", "format": "functional", "conditions": "Homo sapiens"}, "[13]": {"tested_on": "A-375", "assay": "A375 melanoma cell viability reduction, dose response, counter-screen for MITF modulator project, cherry-pick samples, set 2 (AID 540335)", "format": "functional, cell-based", "conditions": "Homo sapiens"}, "[14]": {"target": "T5, Microphthalmia-associated transcription factor (Homo sapiens, UniProt O75030)", "T5 sequence (O75030 whole entry)": "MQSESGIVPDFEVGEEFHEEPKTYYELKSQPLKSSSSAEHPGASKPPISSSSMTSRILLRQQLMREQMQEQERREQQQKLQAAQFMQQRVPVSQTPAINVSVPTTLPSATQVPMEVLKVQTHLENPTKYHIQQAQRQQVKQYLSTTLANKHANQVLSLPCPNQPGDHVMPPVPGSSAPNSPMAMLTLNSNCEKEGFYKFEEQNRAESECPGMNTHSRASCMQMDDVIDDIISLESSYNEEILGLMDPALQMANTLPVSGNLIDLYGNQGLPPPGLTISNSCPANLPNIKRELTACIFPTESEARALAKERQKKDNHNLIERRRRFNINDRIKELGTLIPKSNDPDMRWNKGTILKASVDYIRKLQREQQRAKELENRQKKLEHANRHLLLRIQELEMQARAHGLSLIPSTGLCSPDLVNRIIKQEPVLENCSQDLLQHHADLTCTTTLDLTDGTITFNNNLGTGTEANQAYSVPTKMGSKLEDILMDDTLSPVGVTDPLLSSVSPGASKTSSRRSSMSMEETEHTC", "assay": "TRPM1 promoter luciferase signal decrease, dose response, MITF inhibitor project, cell-based, SK-MEL-5, cherry-picked, set 3 (AID 493073)", "format": "functional"}, "[15]": {"tested_on": "A-375", "assay": "MITF: Counter assay: A375 proliferation Measured in Cell-Based System Using Plate Reader - 2084-03_Inhibitor_Dose_DryPowder_Activity. [Related pubchem assays (depositor defined):AID488944]", "format": "functional", "conditions": "Homo sapiens"}, "[16]": {"target": "Genome polyprotein (dengue virus type 2, UniProt P29990)", "sequence (P29990 2492-3391 limits assumed)": "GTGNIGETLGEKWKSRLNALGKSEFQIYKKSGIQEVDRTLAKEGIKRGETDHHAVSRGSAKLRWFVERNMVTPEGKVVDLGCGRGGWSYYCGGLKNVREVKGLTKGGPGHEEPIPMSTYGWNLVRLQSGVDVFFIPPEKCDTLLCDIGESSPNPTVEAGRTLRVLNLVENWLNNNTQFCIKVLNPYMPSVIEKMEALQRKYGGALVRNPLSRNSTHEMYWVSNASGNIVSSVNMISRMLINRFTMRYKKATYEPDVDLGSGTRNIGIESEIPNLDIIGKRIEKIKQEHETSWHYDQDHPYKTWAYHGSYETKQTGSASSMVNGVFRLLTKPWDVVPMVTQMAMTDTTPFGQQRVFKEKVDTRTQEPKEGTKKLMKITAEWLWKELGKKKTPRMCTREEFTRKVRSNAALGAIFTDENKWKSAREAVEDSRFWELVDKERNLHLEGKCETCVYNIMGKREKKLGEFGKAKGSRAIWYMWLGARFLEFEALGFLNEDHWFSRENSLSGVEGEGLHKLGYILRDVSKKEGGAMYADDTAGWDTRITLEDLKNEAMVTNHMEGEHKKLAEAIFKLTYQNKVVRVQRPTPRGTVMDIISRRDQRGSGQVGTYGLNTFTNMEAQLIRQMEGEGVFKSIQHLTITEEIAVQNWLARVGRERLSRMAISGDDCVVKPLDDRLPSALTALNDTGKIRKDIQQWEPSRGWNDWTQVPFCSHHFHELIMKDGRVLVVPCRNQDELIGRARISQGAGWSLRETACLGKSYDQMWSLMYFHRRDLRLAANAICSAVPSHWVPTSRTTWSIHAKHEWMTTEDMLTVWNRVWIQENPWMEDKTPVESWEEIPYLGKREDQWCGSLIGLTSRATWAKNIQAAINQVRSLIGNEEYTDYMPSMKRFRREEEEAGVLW", "assay": "Dengue-2 NS5 methyltransferase inhibitors, primary screen, biochemical, confirmation dose response (AID 588689)", "format": "functional"}, "[17]": {"target": "DNA dC->dU-editing enzyme APOBEC-3A (Homo sapiens, UniProt P31941)", "sequence (P31941 whole entry)": "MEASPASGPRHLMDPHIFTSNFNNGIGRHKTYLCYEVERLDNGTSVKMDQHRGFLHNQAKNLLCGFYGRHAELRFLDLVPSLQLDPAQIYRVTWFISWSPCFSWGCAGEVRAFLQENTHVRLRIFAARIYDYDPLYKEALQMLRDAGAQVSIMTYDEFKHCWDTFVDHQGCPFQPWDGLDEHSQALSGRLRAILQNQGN", "assay": "Dose Response confirmation of small molecule APOBEC3A DNA Deaminase Inhibitors via a fluorescence-based single-stranded DNA deaminase assay. [Related pubchem assays (depositor defined):AID493011, AID493024]", "format": "functional"}, "[18]": {"target": "DNA dC->dU-editing enzyme APOBEC-3G (Homo sapiens, UniProt Q9HC16)", "sequence (Q9HC16 whole entry)": "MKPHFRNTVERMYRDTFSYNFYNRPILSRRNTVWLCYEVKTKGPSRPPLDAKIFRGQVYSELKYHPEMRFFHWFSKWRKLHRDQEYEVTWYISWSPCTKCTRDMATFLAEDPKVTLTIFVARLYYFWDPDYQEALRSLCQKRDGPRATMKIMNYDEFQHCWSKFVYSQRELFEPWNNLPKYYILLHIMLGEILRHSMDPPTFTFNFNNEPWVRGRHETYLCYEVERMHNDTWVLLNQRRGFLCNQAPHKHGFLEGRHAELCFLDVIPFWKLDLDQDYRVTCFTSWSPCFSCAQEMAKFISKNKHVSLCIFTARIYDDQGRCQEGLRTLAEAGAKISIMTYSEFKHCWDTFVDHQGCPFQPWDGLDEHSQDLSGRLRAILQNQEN", "format": "functional"}, "[19]": {"target": "T6, Mannose-6-phosphate isomerase (Homo sapiens, UniProt P34949)", "T6 sequence (P34949 whole entry)": "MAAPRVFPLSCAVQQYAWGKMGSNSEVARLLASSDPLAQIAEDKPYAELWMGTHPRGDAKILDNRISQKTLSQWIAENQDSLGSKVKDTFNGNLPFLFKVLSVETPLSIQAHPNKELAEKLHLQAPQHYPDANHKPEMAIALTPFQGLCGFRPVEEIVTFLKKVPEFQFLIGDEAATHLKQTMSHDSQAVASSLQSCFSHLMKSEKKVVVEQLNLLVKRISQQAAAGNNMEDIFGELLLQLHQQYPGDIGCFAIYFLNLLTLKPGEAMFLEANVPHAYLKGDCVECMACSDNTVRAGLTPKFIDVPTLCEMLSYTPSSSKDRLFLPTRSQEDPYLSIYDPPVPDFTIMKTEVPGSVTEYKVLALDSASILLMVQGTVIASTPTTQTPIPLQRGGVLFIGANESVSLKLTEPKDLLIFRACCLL", "assay": "inhibitors of human PMI, primary screen, biochemical, fluorescence intensity, coupled assay (AID 1209)"}, "[20]": {"target": "T6, Mannose-6-phosphate isomerase", "assay": "PMI enzyme inhibitors, confirmation, biochemical, fluorescence intensity (AID 1535)"}, "[21]": {"target": "T7, Carboxy-terminal domain RNA polymerase II polypeptide A small phosphatase 1 (Homo sapiens, UniProt Q9GZU7)", "T7 sequence (Q9GZU7 whole entry)": "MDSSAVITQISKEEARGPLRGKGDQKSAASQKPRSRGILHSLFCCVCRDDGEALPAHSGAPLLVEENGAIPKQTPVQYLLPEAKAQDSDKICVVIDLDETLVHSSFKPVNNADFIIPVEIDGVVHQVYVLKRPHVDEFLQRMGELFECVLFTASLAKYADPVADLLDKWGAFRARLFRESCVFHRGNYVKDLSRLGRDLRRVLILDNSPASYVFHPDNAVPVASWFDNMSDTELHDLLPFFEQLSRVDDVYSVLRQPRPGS", "assay": "inhibitors of CTDSP1, concentration-response testing, biochemical assay, absorbance-based, actives from ultra-high-throughput screening (AID 540297)", "format": "functional"}, "[22]": {"target": "Induced myeloid leukemia cell differentiation protein Mcl-1 (Homo sapiens, UniProt Q07820)", "sequence (Q07820 whole entry)": "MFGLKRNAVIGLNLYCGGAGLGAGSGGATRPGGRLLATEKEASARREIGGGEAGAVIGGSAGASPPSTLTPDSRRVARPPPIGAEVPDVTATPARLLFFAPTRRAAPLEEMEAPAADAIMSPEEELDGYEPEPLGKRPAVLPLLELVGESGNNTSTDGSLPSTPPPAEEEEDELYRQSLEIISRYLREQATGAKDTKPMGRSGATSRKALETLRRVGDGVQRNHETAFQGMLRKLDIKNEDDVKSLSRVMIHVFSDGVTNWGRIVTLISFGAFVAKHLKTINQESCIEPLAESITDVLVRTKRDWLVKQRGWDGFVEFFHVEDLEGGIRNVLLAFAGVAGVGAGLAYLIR", "format": "functional"}, "[23]": {"target": "T8, Phosphomannomutase 2 (Homo sapiens, UniProt O15305)", "T8 sequence (O15305 whole entry)": "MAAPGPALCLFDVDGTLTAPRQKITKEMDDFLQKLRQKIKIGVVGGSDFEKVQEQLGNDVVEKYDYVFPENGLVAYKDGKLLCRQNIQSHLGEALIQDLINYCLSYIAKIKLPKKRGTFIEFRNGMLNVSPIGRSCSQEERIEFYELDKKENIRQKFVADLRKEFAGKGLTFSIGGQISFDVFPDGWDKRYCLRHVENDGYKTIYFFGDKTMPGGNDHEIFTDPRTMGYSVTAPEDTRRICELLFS", "assay": "Counter screen SAR assay for PMM2 inhibitors via a fluorescence intensity assay. [Related pubchem assays (depositor defined):AID1545, AID1574]"}}, "note": "Activity calls are given as the source filed them.", "data": [{"smiles": "Cn1ccc(=Nc2ccc(NC(=O)c3ccc(/N=c4\\ccn(C)c5ccc([N+](=O)[O-])cc45)cc3)cc2)cc1", "values": [{"measurement": "AC50", "setting": "[1]", "value": "12 µM (active)"}, {"measurement": "EC50", "setting": "[2]", "value": "17.1 µM (active)"}, {"measurement": "IC50", "setting": "[3]", "value": "13.1 µM (active)"}, {"measurement": "EC50", "setting": "[4]", "value": "18 µM (inconclusive)"}, {"measurement": "IC50", "setting": "[5]", "value": "> 66.6 µM (inactive)"}, {"measurement": "EC50", "setting": "[6]", "value": "28 µM (inconclusive)"}, {"measurement": "EC50", "setting": "[7]", "value": "> 150 µM (inconclusive)"}, {"measurement": "EC50", "setting": "[8]", "value": "0.976 µM (active)"}, {"measurement": "EC50", "setting": "[9]", "value": "2.47 µM (active)"}, {"measurement": "AC50", "setting": "[10]", "value": "1.28 µM (active)"}, {"measurement": "IC50", "setting": "[11]", "value": "35.5 µM (active)"}, {"measurement": "EC50", "setting": "[12]", "value": "15.3 µM (active)"}]}, {"smiles": "CC(C)C(c1nnnn1C1CCCC1)N1CCC(C(N)=O)CC1", "note": "(stereo not given)", "values": [{"measurement": "AC50", "setting": "[1]", "value": "164 µM (active)"}]}, {"smiles": "O=C(Cn1ncc(Cl)c(Cl)c1=O)NC1CCCCC1", "values": [{"measurement": "AC50", "setting": "[13]", "value": "> 35 µM (active)"}, {"measurement": "AC50", "setting": "[14]", "value": "6.82 µM (active)"}, {"measurement": "AC50", "setting": "[15]", "value": "> 35 µM (active)"}]}, {"smiles": "O=C(O)CCn1cc(C=C2C(=O)NC(=S)NC2=O)c(-c2cccc(Br)c2)n1", "values": [{"measurement": "IC50", "setting": "[16]", "value": "6.04 µM (active)"}, {"measurement": "IC50", "setting": "[17]", "value": "15.8 µM (active)"}, {"measurement": "IC50", "setting": "[18]", "value": "29.3 µM (active)"}, {"measurement": "IC50", "setting": "[19]", "value": "11.7 µM (active)"}, {"measurement": "IC50", "setting": "[20]", "value": "9.83 µM (active)"}, {"measurement": "IC50", "setting": "[21]", "value": "4.47 µM (active)"}, {"measurement": "IC50", "setting": "[22]", "value": "2.39 µM (active)"}, {"measurement": "IC50", "setting": "[11]", "value": "89.9 µM (active)"}, {"measurement": "IC50", "setting": "[23]", "value": "> 100 µM (inactive)"}]}]}
